Data reported in US9790221B2, “Heteroaryl compounds as IRAK inhibitors and uses thereof” (Merck Patent GmbH, priority 2014, dated 2017).
Where a name gives a salt, the structure may show the parent alone.

How the values were obtained:
[1] = target: IRAK1 (His-TEV-IRAK1 (194-712)) (Homo sapiens (Human), UniProt P51617); test: IRAK1 enzymatic assay; format: biochemical
Description: IRAK1 is a human purified recombinant enzyme (His-TEV-IRAK1 (194-712)). In this assay, IRAK-1 hydrolyses ATP and autophosphorylates. Measurement of IRAK-1 inhibition was performed in streptavidin coated 384well FlashPlate (PerkinElmer #SMP410A).
His-TEV-IRAK-1 (15 ng/well), ATP (1 μM, [33P]ATP 0.25 μCi/well) and compounds in DMSO (range of concentrations from 20 µM to 1 nM) or controls (2% DMSO) were incubated for 3 hours at 30° C. in assay buffer: Hepes pH7.0 50 mM, Fatty acid-free BSA 0.1%, Dithiothreitol DTT 2 mM, MgCl2 10 mM, EGTA 0.5 mM, Triton-X-100 0.01%. Kinase reaction was stopped by addition of EDTA. Supernatant was discarded, plates were washed three times with 150 mM NaCl and radioactivity was then measured in a Microbeta Trilux reader.

IRAK4 = IRAK4 (Homo sapiens (Human), UniProt Q9NWZ3); test: IRAK4 enzymatic assay; format: biochemical
IRAK4, sequence (Q9NWZ3 whole entry): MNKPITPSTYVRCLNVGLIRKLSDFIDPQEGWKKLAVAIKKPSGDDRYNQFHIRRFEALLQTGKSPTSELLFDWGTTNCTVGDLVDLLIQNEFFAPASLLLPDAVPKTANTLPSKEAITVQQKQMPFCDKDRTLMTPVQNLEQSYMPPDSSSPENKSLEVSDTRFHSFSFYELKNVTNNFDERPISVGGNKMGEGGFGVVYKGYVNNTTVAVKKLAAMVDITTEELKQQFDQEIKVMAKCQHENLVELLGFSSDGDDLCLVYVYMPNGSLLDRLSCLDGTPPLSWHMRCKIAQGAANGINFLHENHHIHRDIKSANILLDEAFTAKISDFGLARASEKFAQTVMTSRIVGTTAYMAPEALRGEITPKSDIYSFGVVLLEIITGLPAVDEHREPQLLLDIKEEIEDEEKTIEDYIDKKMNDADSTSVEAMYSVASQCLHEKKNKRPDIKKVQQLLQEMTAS
Description: IRAK4 is a human purified recombinant enzyme ([…]. IRAK4 hydrolyses ATP, autophosphorylates and phosphorylates a Serine/Threonine generic peptidic substrate (STK: 61ST1BLC from CisBio International based in Bagnols/Cèze FR).
Measurement of IRAK-4 inhibition was performed in streptavidin coated 384well FlashPlate (PerkinElmer #SMP410A). His-TEV-IRAK4 (20 ng/well), ATP (2 μM, [^33P]ATP 0.25 µCi/well), STK1-biotin peptide (300 nM) and compounds in DMSO (range of concentrations from 20 µM to 1 nM) or controls (2% DMSO) were incubated for 3 hours at 30° C. in assay buffer: Hepes pH7.0 50 mM, Fatty acid-free BSA 0.1%, Dithiothreitol DTT 2 mM, MgCl2 10 mM, EGTA 0.5 mM, Tween-20 0.01%, MnCl2 5 mM.
Kinase reaction was stopped by addition of EDTA. Supernatant was discarded, plates were washed three times with 150 mM NaCl and radioactivity was then measured in a Microbeta Trilux reader.

IRAK1 (His-TEV-IRAK1 (194-712)), sequence (P51617 194-712): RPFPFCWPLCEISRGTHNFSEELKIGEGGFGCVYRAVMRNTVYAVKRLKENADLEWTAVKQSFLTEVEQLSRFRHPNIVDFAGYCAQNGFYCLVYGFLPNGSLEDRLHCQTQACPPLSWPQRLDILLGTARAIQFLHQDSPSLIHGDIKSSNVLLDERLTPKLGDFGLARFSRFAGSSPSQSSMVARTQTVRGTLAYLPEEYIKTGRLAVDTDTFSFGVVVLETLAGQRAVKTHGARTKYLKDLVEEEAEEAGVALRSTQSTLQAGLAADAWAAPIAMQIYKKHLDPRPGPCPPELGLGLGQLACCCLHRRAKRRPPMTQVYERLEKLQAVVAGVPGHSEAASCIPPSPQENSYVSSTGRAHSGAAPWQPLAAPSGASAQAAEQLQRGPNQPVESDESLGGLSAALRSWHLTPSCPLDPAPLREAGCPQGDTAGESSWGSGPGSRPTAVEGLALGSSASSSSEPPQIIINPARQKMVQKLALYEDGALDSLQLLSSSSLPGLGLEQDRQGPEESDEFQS

SMILES | IC50 [1] [nM] | IC50 (IRAK4) [nM]
Cn1cc(-c2cccc(-c3ncc(-c4cnn(C)c4)c(N4CC[C@@H](N)C4)n3)c2)cn1 [Example 241] | 1000 to 5000 | 100 to 1000
Cn1cc(-c2cccc(-c3ncc(-c4cnn(C)c4)c(NCC4[C@H]5CN(S(C)(=O)=O)C[C@@H]45)n3)c2)cn1 (stereo partly shown) [Example 173] | > 5000 | 100 to 1000
Cn1cc(-c2cccc(-c3ncc(-c4cnn(C)c4)c(N4CCCC(CO)C4)n3)c2)cn1 (stereo not shown) [Example 220] | 100 to 1000 | < 100
Cn1cc(-c2cccc(-c3ncc(-c4cnn(C)c4)c(NC4(CO)COC4)n3)c2)cn1 [Example 92] | > 5000 | > 5000
Cn1cc(-c2cccc(-c3ncc(-c4cnn(C)c4)c(NCCCCN)n3)c2)cn1 [Example 88] | > 5000 | 100 to 1000
CC(=O)N1CCC(O)(CNc2nc(-c3cccc(-c4cnn(C)c4)c3)ncc2-c2cnn(C)c2)CC1 [Example 277] | > 5000 | 100 to 1000
Cn1cc(-c2cccc(-c3ncc(-c4cnn(C)c4)c(N[C@@H]4CNC[C@@H](F)C4)n3)c2)cn1 [Example 130] | 1000 to 5000 | 100 to 1000
Cn1cc(-c2cccc(-c3ncc(-c4cnn(C)c4)c(N4CCC(NS(C)(=O)=O)CC4)n3)c2)cn1 [Example 250] | 1000 to 5000 | 100 to 1000
Cc1cc(-c2cccc(-c3cnn(C)c3)c2)ncc1-c1cnn(C2CCOCC2)c1 [Example 24, 4-Methyl-2-[3-(1-methyl-1H-pyrazol-4-yl)-phenyl]-5-[1-(tetrahydro-pyran-4-yl)-1H-pyrazol-4-yl]-pyridine] | > 5000 | 1000 to 5000
Cn1cc(-c2cccc(-c3ncc(-c4cnn(C)c4)c(NCC(N)=O)n3)c2)cn1 [Example 25, 2-{5-(1-Methyl-1H-pyrazol-4-yl)-2-[3-(1-methyl-1H-pyrazol-4-yl)-phenyl]-pyrimidin-4-ylamino}-acetamide formate] | > 5000 | 1000 to 5000
Cn1cc(-c2cccc(-c3ncc(-c4cnn(C)c4)c(N4CC(O)C4)n3)c2)cn1 [Example 226] | > 5000 | 100 to 1000
Cn1cc(-c2cccc(-c3ncc(-c4cnn(C)c4)c(N[C@@H]4CC[C@H](NS(C)(=O)=O)C4)n3)c2)cn1 (racemic) [Example 176] | 1000 to 5000 | < 100
Cn1cc(-c2cccc(-c3ncc(-c4cnn(C)c4)c(NCC4(F)CCN(S(C)(=O)=O)CC4)n3)c2)cn1 [Example 236] | 1000 to 5000 | 100 to 1000
CC(=O)NCCCNc1nc(-c2cccc(-c3cnn(C)c3)c2)ncc1-c1cnn(C)c1 [Example 109] | > 5000 | 100 to 1000
Cn1cc(-c2cccc(-c3ncc(-c4cnn(C)c4)c(NCC4(O)CCN(S(C)(=O)=O)CC4)n3)c2)cn1 [Example 249] | 1000 to 5000 | 100 to 1000
Cn1cc(-c2cccc(-c3ncc(-c4nnc(C(=O)N5CC[C@@H](O)C5)s4)c(NCC4CNC4)n3)c2)cn1 [Example 106] | > 5000 | < 100
Cn1cc(-c2cccc(-c3ncc(-c4cnn(C)c4)c(NCCCN)n3)c2)cn1 [Example 89] | > 5000 | 1000 to 5000
Cn1cc(-c2cccc(-c3ncc(-c4cnn(C)c4)c(N4CCC(CCO)C4)n3)c2)cn1 (stereo not shown) [Example 228] | > 5000 | 1000 to 5000
Cn1cc(-c2cccc(-c3ncc(-c4cnn(C)c4)c(NCCCN4CCOCC4)n3)c2)cn1 [Example 51] | > 5000 | 1000 to 5000
COC(=O)[C@@H]1CCC[C@H](Nc2nc(-c3cccc(-c4cnn(C)c4)c3)ncc2-c2cnn(C)c2)C1 [Example 232] | 100 to 1000 | < 100
Cn1cc(-c2cccc(-c3ncc(-c4cnn(C)c4)c(NC4CC(CO)(CO)C4)n3)c2)cn1 [Example 180] | 100 to 1000 | < 100
Cn1cc(-c2cccc(-c3ncc(-c4cnn(C)c4)c(NCCCC(C)(C)O)n3)c2)cn1 [Example 139] | 100 to 1000 | 100 to 1000
CC(=O)NC1CCC(Nc2nc(-c3cccc(-c4cnn(C)c4)c3)ncc2-c2nnc(C)s2)CC1 (stereo not shown) [Example 205] | 100 to 1000 | < 100
Cn1cc(-c2cccc(-c3ncc(-c4cnn(C)c4)c(NC4CC5(C4)CC(NS(C)(=O)=O)C5)n3)c2)cn1 (stereo not shown) [Example 160] | 100 to 1000 | < 100
CC(Nc1nc(-c2cccc(-c3cnn(C)c3)c2)ncc1-c1cnn(C)c1)C1CCN(S(C)(=O)=O)CC1 (stereo not shown) [Example 274] | > 5000 | 100 to 1000
Cn1cc(-c2cccc(-c3ncc(-c4cnn(C)c4)c(NC4CC5CC4N(S(C)(=O)=O)C5)n3)c2)cn1 (stereo not shown) [Example 189] | > 5000 | > 5000

Second part, the compound after the results:

IC50 [1] [nM] | IC50 (IRAK4) [nM] | SMILES
100 to 1000 | < 100 | Cn1cc(-c2cccc(-c3ncc(-c4cnn(C)c4)c(NCC4CCC4)n3)c2)cn1 [Example 163]
1000 to 5000 | 100 to 1000 | Cn1cc(-c2cccc(-c3ncc(-c4ccn(C)n4)c(NC4CC(O)C4)n3)c2)cn1 (stereo not shown) [Example 82]
1000 to 5000 | 100 to 1000 | Cn1cc(-c2cccc(-c3ncc(-c4cnn(C)c4)c(NCC4CCCC4NS(C)(=O)=O)n3)c2)cn1 (stereo not shown) [Example 203]
> 5000 | 100 to 1000 | Cn1cc(-c2cccc(-c3ncc(-c4ccn(C)n4)c(NCCN4CCOCC4)n3)c2)cn1 [Example 69]
100 to 1000 | < 100 | Cn1cc(-c2cccc(-c3ncc(-c4cnn(C)c4)c(NCC4CC4)n3)c2)cn1 [Example 157]
> 5000 | 100 to 1000 | Cn1cc(-c2cccc(-c3ncc(-c4cnn(C)c4)c(N4CCNCC4)n3)c2)cn1 [Example 148]
> 5000 | 100 to 1000 | Cn1cc(-c2cccc(-c3ncc(-c4ccn(C)n4)c(NC4CCC5CNCC54)n3)c2)cn1 (stereo not shown) [Example 154]
1000 to 5000 | 100 to 1000 | Cn1cc(-c2cccc(-c3ncc(-c4ccn(C)n4)c(NCC4CCNC(=O)C4)n3)c2)cn1 (stereo not shown) [Example 74]
> 5000 | > 5000 | Cn1cc(-c2cccc(-c3ncc(-c4ccn(C)n4)c(NCC4(C)CCC4)n3)c2)cn1 [Example 71]
100 to 1000 | < 100 | Cn1cc(-c2cccc(-c3ncc(-c4cnn(C)c4)c(NC[C@H]4CCN(S(C)(=O)=O)C4)n3)c2)cn1 [Example 174]
> 5000 | 100 to 1000 | Cn1cc(-c2cccc(-c3ncc(-c4cnn(C)c4)c(NCC4CNCCO4)n3)c2)cn1 (stereo not shown) [Example 59]
1000 to 5000 | 1000 to 5000 | CC(=O)NCCNc1nc(-c2cccc(-c3cnn(C)c3)c2)ncc1-c1ccn(C)n1 [Example 73]
> 5000 | 100 to 1000 | CC(=O)N[C@@H]1CCC[C@@H]1CNc1nc(-c2cccc(-c3cnn(C)c3)c2)ncc1-c1cnn(C)c1 (relative stereo) [Example 206, N-[(Cis)-2-({5-(1-Methyl-1H-pyrazol-4-yl)-2-[3-(1-methyl-1H-pyrazol-4-yl)-phenyl]-pyrimidin-4-ylamino}-methyl)-cyclopentyl]-acetamide]
> 5000 | 1000 to 5000 | Cn1cc(-c2cccc(-c3ncc(-c4cnn(C)c4)c(NCCN4CCC(O)CC4)n3)c2)cn1 [Example 110]
100 to 1000 | < 100 | Cn1cc(-c2cccc(-c3ncc(-c4cnn(C)c4)c(NCC4CCN(S(C)(=O)=O)C4)n3)c2)cn1 (stereo not shown) [Example 158]
100 to 1000 | 100 to 1000 | Cn1cc(-c2cccc(-c3ncc(-c4ccn(C)n4)c(NC[C@H](O)CO)n3)c2)cn1 [Example 120]
> 5000 | 100 to 1000 | Cn1cc(-c2cccc(-c3ncc(-c4ccn(C)n4)c(NCCCN4CCOC4=O)n3)c2)cn1 [Example 67]
> 5000 | 1000 to 5000 | Cn1cc(-c2cccc(-c3ncc(-c4ccn(C)n4)c(NCCCN4CCCC4=O)n3)c2)cn1 [Example 72]
> 5000 | > 5000 | Cn1cc(-c2cccc(-c3ncc(-c4ccn(C)n4)c(NCC4CCNCC4)n3)c2)cn1 [Example 12, {5-(1-Methyl-1H-pyrazol-3-yl)-2-[3-(1-methyl-1H-pyrazol-4-yl)-phenyl]-pyrimidin-4-yl}-piperidin-4-ylmethyl-amine]
> 5000 | 100 to 1000 | Cn1cc(-c2cccc(-c3ncc(-c4ccn(C)n4)c(NCC4CCCC(O)C4)n3)c2)cn1 (stereo not shown) [Example 122]
> 5000 | 1000 to 5000 | Cn1cc(-c2cccc(-c3ncc(-c4cnn(C)c4)c(NCC4(F)CCNCC4)n3)c2)cn1 [Example 231]
> 5000 | 1000 to 5000 | Cn1cc(-c2cccc(-c3ncc(-c4cnn(C)c4)c(NCCN4CCCC4=O)n3)c2)cn1 [Example 39]
1000 to 5000 | 100 to 1000 | Cn1cc(-c2cccc(-c3ncc(-c4ccn(C)n4)c(NC4CC5(CC(N)C5)C4)n3)c2)cn1 (stereo not shown) [Example 98]
100 to 1000 | 100 to 1000 | Cn1cc(-c2cccc(-c3ncc(-c4cnn(C)c4)c(NC4CC4)n3)c2)cn1 [Example 30]
